In PMC5085761 (International Journal of Molecular Sciences, 2016):

Target: T1, OAT3 (Homo sapiens, UniProt Q8TCC7)
T1 construct: host or cells: HEK293
T1 sequence (Q8TCC7 1-542): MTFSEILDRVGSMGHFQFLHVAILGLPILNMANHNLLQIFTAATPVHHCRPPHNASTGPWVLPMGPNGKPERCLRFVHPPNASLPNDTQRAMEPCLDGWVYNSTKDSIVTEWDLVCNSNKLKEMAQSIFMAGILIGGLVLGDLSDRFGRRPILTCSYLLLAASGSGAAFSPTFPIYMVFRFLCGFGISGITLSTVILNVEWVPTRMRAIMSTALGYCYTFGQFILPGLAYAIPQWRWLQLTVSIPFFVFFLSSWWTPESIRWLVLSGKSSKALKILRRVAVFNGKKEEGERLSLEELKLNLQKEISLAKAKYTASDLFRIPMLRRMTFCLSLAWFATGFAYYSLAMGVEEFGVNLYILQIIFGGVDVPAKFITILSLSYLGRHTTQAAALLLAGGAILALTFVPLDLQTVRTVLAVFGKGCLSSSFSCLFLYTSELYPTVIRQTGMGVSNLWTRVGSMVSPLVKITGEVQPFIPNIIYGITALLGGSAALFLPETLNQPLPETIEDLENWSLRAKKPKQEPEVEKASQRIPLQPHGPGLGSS
Assay: [14C]fluciclovine uptake by OAT3-expressing cells
Assay type: in vitro ADME
Details: OAT3 cells vs mock cells

With `N[14C]1(C(=O)O)CC(F)C1` (stereo not drawn) [[^14C]fluciclovine, trans-1-amino-3-fluoro[1-^14C]cyclobutanecarboxylic acid] the drug transporter-mediated uptake was “negligible”.
